Publication PMC11570809, “Novel N-phenyl-2-(aniline) benzamide hydrochloride salt development for colon cancer therapy” (Frontiers in Pharmacology, 2024)
Values joined by “and” are separate entries in the source; they are usually repeats but may differ in a detail not shown here. Equal values may be shown once. Where a name gives a salt, the structure may show the parent alone. Read-outs that look alike come from different tables or passages of the source.

How the values were obtained:
[1] = Oral pharmacokinetics study; type: in vivo, SD rats; settings: for T1/2 / Tmax: n = 3
Protocol: Six 250–280 g male SD rats, which are 8-week-old, were randomly divided into 2 groups (n = 3). The dose selection is based on previously described ([Xiaoling Hu et al., 2022]). 100 mg/kg N53 and N53·HCl dissolved in normal saline containing 2.5% polyoxyethylene castor oil and 2.5% DMSO was administrated by oral medications. The first group was given 100 mg/kg of N53 by intragastric administration, and the second group was given 100 mg/kg of N53·HCl by intragastric administration. For intragastric administration, blood samples were collected from the orbits of the rats in heparin sodium tubes at 0, 5, 15, 30 min, 1, 2, 4, 6, 8, 12, and 24 h after dosing; The above blood samples were centrifuged (2,500 rpm, 6 min, 4°C) to plasma, and stored at −80°C to be analyzed by LC-MS/MS. Firstly, 5 times methanol was added to each serum sample and mixed well. After centrifugation at 1,600 rpm for 10 min at 4°C, the samples were filtered through a 0.22 μm filter for analysis. The HPLC analysis was carried out on an ODS-C18 column (4.6 mm × 50 mm, 3 μm). The HPLC mobile phases consisted of water (0.1% formic acid) (A) and 95% acetonitrile (including 0.1% formic acid) (B), separated by gradient chromatography at 0.4 mL/min. Chromatographic conditions: mobile phase: 0–0.5 min, acetonitrile: H2O = 10:90; 0.5–0.6 min acetonitrile: H2O = 100:0, 0.6–2.4 min, acetonitrile: H2O = 100:0, 2.4–2.5 min acetonitrile: H2O = 10:90; wavelength: 254 nm; column temperature: 25°C. The column eluate was directly introduced into ES-API. The MS/MS instrument was conducted using the electrospray ionization (ESI) source with a positive ion detection mode. The analytes (N53·HCl) and IS (Propranolol) were all detected by multiple reactions monitoring (MRM) scan mode of transitions from precursor ions to product ions at m/z 435.2→192.1 for N53·HCl (retention time: 1.54 min), m/z 260.0→116.0 for IS (retention time: 1.54 min). The optimized instrument parameters are as follows: declustering potentials (DP) at 51 V for N53·HCl, 78 V for IS; entrance potentials (EP) at 8V; collision energies (CE) at 34 V for N53·HCl, 25 V for IS; collision cell exit potentials (CXP) at 7 V; curtain gas (CUR) at a pressure of 10 psi; turbo spray voltage at 5,500 V. Data acquisition of LC-MS/MS was performed with AnalystTM 1.5 software package (Applied Biosystems, MA, United States). The pharmacokinetic parameters for N53 and N53·HCl were calculated by using the non-compartment method (statistical moment) in DAS 2.0 software (Pharmacokinetics Institute of China).

HepG2 = experiment: MTT anti-proliferation assay, HepG2; type: cell-based, human; settings: read-out: IC50 ± SD HepG2
RKO = experiment: MTT anti-proliferation assay, RKO; type: cell-based, human; settings: 72 h, read-out: IC50 ± SD RKO
Protocol: The anti-proliferation activities of synthesized compounds to colon cancer cell lines were measured by the MTT (3-[4,5-dimethyl-2-thiazolyl]-2,5-diphenyl-2H-tet razolium bromide) assay. First, the cell suspension was prepared by trypsin and the corresponding medium, cells were diluted to 5 × 10^5 cells/mL, and 96-well plates were added 200 μL per well. The plates were maintained at 37°C in a humidified atmosphere containing 5% CO2 overnight. Then compounds at gradient concentrations were added to cells in the logarithmic phase to make the final concentration at 0.5, 1, 2, 4, 8, 16, and 32 μM. The cells were treated with tested compounds for 72 h, and the growth curve assay was tested in 24 h. When the time was up, 20 μL of MTT solution (5 mg/mL in PBS) was added into each well to incubate for 4 h at 37°C. Then the supernatant liquid was removed, 150 μL DMSO was added into every well to dissolve formazan crystals and read the absorbance at 570 nm by Spark microplate spectrophotometer (Tecan, Swiss). The IC50 values were analyzed by IBM SPASS Statistics 25.0 software. The data are all derived from three parallel experiments (n = 3) and expressed as mean ± SD.

[2] = Thermodynamic solubility in water (HPLC); type: physicochemical; settings: for Solubility, equivalent molar concentration: water
Protocol: The thermodynamic solubility of N53·HCl in water was determined by high-performance liquid chromatography (Waterage, Alliance HPLC E2695, United States). The HPLC mobile phases were water (0.1% formic acid) and methanol separated by gradient chromatography at 0.5 mL/min. The chromatographic conditions were followed. Mobile phase: methanol: H2O = 10:90; 15 min; wavelength: 254 nm; temperature: 25°C. N53 and N53·HCl were dissolved in methanol to form a gradient concentration standard solution (0.32, 1.6, 8, 40, 200 and 1,000 μg/mL). The standard solutions were scanned at 254 nm and the absorption area was recorded against the concentration curve. Saturated solutions of the compounds were prepared by magnetic stirring at 37°C for 4 h in deionized water in small volumes and the solid compounds were removed using Millipore 0.45 μm filters. The saturated solution was then scanned at 254 nm. The thermodynamic solubility in water was calculated from the absorption area and curve.

[3] = 100 mg/kg p.o., n = 3, mean ± SD

Cc1c(Cl)cccc1Nc1ccccc1C(=O)Nc1ccc(N2CCN(C)CC2)cc1 [Compound N53, 2-((3-chloro-2-methylphenyl)amino)-N-(4-(4-methylp-iperazin-1-yl)phenyl)benzamide]
Cmax (peak plasma concentration) ([1]; 100 mg/kg p.o.): 333.7 µg/mL and 333 µg/mL
T1/2 ([1]; 100 mg/kg p.o.): 10.78 h and 10.8 ± 0.7 h
Tmax ([1]; 100 mg/kg p.o.): 6.0 ± 2.0 h
AUC0(-∞) [1, 3]: 7200 ± 700 ng·h/mL
CLz [1, 3]: 232 ± 21.7 mL/min/kg
Cmax [1, 3]: 330 ± 40 µg/mL
Vd/F ([1]; male, SD, rat, plasma, po, 100 mg/kg, 100 mg/kg p.o., n = 3, mean ± SD, read-out: Vz/F): 217 ± 33.3 L/kg
IC50 (HepG2; 72 h): 2.31 ± 0.09 µM
IC50 (RKO): 6.29 ± 0.54 µM
Solubility, equivalent molar concentration [2]: < 0.74 µM

Cc1c(Cl)cccc1Nc1ccccc1C(=O)Nc1ccc(N2CCN(C)CC2)cc1 [N53·HCl, 4-(4-(2-((3-chloro-2-methylphenyl)amino)ben-zamido)phenyl)-1-methylpiperazin-1-ium]
Cmax (peak plasma concentration) ([1]; 100 mg/kg p.o.): 680.0 µg/mL
T1/2 ([1]; 100 mg/kg p.o.): 22.3 ± 9.9 h
Tmax ([1]; 100 mg/kg p.o.): 6.7 ± 4.6 h
AUC0(-∞) [1, 3]: 21200 ± 8000 ng·h/mL
CLz [1, 3]: 85 ± 26.7 mL/min/kg
Cmax [1, 3]: 680 ± 180 µg/mL
Vz/F [1, 3]: 149.7 ± 11.6 L/kg
Tmax ([1]; male, SD, rat, plasma, po, 100 mg/kg, 100 mg/kg p.o., read-out: Tmax): 6.67 h
AUC0–∞ increase relative to N53 ([1]; oral): 3 fold
Cmax increase relative to N53 ([1]; oral): 2 fold
IC50 (HepG2; Homo sapiens, HepG2, 72 h): 4.12 ± 0.39 µM
IC50 (RKO; Homo sapiens, RKO): 7.99 ± 0.85 µM
solubility at 4 h ([2]; deionized water, thermodynamic, 37°C, 4 h): 540 µg/mL
Water solubility ([2]; thermodynamic, deionized water, 37°C, 4 h): 540 µg/mL
Solubility, equivalent molar concentration [2]: 1150 µM
